Like-named read-outs stand apart in the source and are kept apart here.
Tests used:
[1] = previously published; cited from earlier work
Caco-2 monolayer = experiment: Bidirectional permeability in Caco-2 cells in absence and presence of SCE; type: in vitro ADME, human; settings: for Change of Papp A-B in presence of SCE vs Free / Change of Papp B-A in presence of SCE vs Free / Change of efflux ratio in presence of SCE vs Free: +SCE 1 mg/mL vs Free
Experimental: (§1) Caco-2 cells were seeded at a density of 2 × 10^4 on Transwell supports (0.4 µm pore polycarbonate membrane, 6.5 mm) and incubated overnight in a controlled atmosphere of 37 °C and 5% of CO2. The following day, the medium was changed to remove floating cells and fresh pre-warmed DMEM 20% was added (300 µL in the apical compartment and 1200 µL in the basal one). Cells were cultured for approximately 18–21 days in order to ensure that the cellular monolayers differentiated and many transport proteins and brush border hydrolases were expressed. Media were changed every 2–3 days.
(§2) For permeability studies, stock solutions of compounds were prepared by solubilizing 1.0 mg of accurately weighed powder with dimethyl sulfoxide (DMSO) and conserved at −20 °C. Immediately prior to the experiments, working solutions (WS) were prepared by diluting the stock solutions with pre-warmed HBSS to the final concentration of 10 µM. The final concentration of DMSO used never exceeded 0.1% v/v. The assays were performed in both the absorptive (from apical-to-basolateral compartment (A-B)) and the secretory direction (from basolateral-to-apical compartment (B-A)), both in the absence (Free) and presence of sweet cherry extract (+SCE [1 mg/mL]) diluted in HBSS. The final volumes used for the experiment were 300 µL in the apical compartment and 1200 µL in the basolateral one. Plates were incubated at 37 °C and maintained under gentle shaking (500 rpm) to reduce the effect of the unstirred water layer. At selected time points (T0–0.25–0.5–1–2 h-TEND for the A-B studies; T0–2 h–TEND for the B-A studies), samples (200 µL) were collected from the receiving compartments (from the basolateral compartment for the A-B assay; from the apical one for the B-A study) and replaced with the same volume of HBSS. The HPLC-UV/MS method was developed to quantify the amount of drug transferred across the cellular monolayer, and permeability (Papp, 10^−6 cm/s) and efflux ratio (ER) were calculated according to the following equations:Papp = (dQ/dt) × 1/(A × C0)(5) where dQ/dt is the steady-state flux (µmol s^−1), A is the area of the filter (cm^2), and C0 is the initial concentration in the donor compartment (µM). ER = (Papp B-A)/(Papp A-B)(6)
(§3) Chromatographic analyses were carried out using an Agilent 1260 Infinity HPLC-DAD system connected to an Agilent MSD 6130 system (Agilent Technologies, Palo Alto, CA, USA). At room temperature, a Kinetex C18-100 Å column (150 mm 4.6 mm, purchased from Phenomenex, Torrance, CA, USA) with a 5 µm particle size and gradient elution with a binary solution (eluent A: H2O, eluent B: ACN, both acidified with 0.1% v/v formic acid) was for the chromatographic separation. Analyses started with 5% B (from t = 0 to t = 1 min), then increased to 95% (from t = 1 to t = 10 min), then maintained at 95% (from t = 10 to t = 15 min), and finally returned to […] in 1.0 min. The volume injected was 10 µL, and the flow rate 600 µL/min. UV detection was monitored at 254 nm, and spectra were collected in both the positive and negative modes within the scan range of m/z 100–1500.

[2] = as above; type: in vitro ADME, human; settings: human, 10 µM compound; for Papp A→B at 2 h, 10 µM: apical to basolateral; for Papp B→A at 2 h, 10 µM: basolateral to apical; for efflux ratio at 2 h, 10 µM: read-out: Efflux ratio (ER) (Papp B-A/Papp A-B)
Experimental: as §1, §2, §3

[3] = human liver microsomes; previously published; cited from earlier work
[4] = previously published; cited from earlier work; remark: listed apart in the source
Caco-2 cells = experiment: Cell viability assay (MTT) on Caco-2 cells; type: cell-based, human; settings: 2 h
Experimental: (§4) Cells were sub-cultured using a 1× trypsin/EDTA solution and then passed every 3–4 days at appropriate ratios (typically 1:3, 1:6, 1:12). […] After 2 h of treatment, solutions were aspirated from the wells, and the cells were washed with pre-warmed PBS. […] Furthermore, it was mandatory to identify the most suitable drug concentration that would avoid cytotoxic effects on Caco-2 cells (a condition that may bias the permeability study) and that would allow the optimal chromatographic response when analyzing the samples obtained. Therefore, cells were exposed to increasing concentrations of drugs (1–10–100 µM) for 2 h. […] In order to fully reproduce the conditions of the permeability studies and assess the possible induction of irreversible cytotoxic effects by SCE or drugs, cell viability was also checked after a further 24 h of incubation in free medium (2 h + 24 h). Cell viability was assessed as above described.

[5] = Cell viability assay (MTT) on Caco-2 cells; type: cell-based, human; settings: human, Caco-2 cells, 2 h + 24 h fresh medium
Experimental: as §4

[6] = parameters: method as in earlier work; settings: in humans; EMA reports; cited from earlier work
[7] = known from literature; cited from earlier work
[8] = known from the literature; cited from earlier work

Row | Change of Papp A-B in presence of SCE vs Free (Caco-2 monolayer) | Change of Papp B-A in presence of SCE vs Free (Caco-2 monolayer) | Change of efflux ratio in presence of SCE vs Free (Caco-2 monolayer) | Papp A→B at 2 h, 10 µM ([2]; Caco-2, +SCE [1 mg/mL]) [×10⁻⁶ cm/s] | Papp B→A at 2 h, 10 µM ([2]; Caco-2, +SCE [1 mg/mL]) [×10⁻⁶ cm/s] | efflux ratio at 2 h, 10 µM ([2]; Caco-2, +SCE [1 mg/mL]) | Papp A→B at 2 h, 10 µM ([2]; Caco-2, Free) [×10⁻⁶ cm/s] | Papp B→A at 2 h, 10 µM ([2]; Caco-2, Free) [×10⁻⁶ cm/s] | efflux ratio at 2 h, 10 µM ([2]; Caco-2, Free) | Compound | PAMPA membrane retention (MR %) [1] [%] | Metabolic Stability [3] [%] | PAMPA Papp [1] | further results
1 | about three and four times | more interesting implementation | almost halved | 16.167 ± 0.014 | 26.8 ± 3.68 | 1.66 ± 0.226 | 4.943 ± 0.044 | 15.1 ± 1.57 | ~3 | Fc1ccc(C(Cl)Cn2ncc3c(NCc4ccccc4)ncnc32)cc1 (stereo not drawn) [Cpd 1] | 9.2 | 84.2 |  | melting point: 143 to 144 °C
2 | almost doubled | only a slight increase | only a slight decrease | 1.17 ± 0.12 | 0.457 ± 0.108 | 0.387 ± 0.052 | < 0.5 | 0.229 ± 0.023 | 0.517 ± 0.014 | Oc1ccc(Cl)c(Nc2nc(SCCN3CCOCC3)nc3c2cnn3/C=C/c2ccccc2)c1 [Cpd 7] | 5.4 | 97.6 | 5.5 10^−6 cm/s | Water Solubility [4]: 0.036 µg/mL; melting point: 189 to 191 °C; Efflux ratio (ER) (Papp B-A/Papp A-B) (Caco-2 monolayer; Free, 10 µM compound): 0.481 ± 0.049
3 | about three and four times | more interesting implementation | almost halved | 14.9 ± 1.86 | 51.45 ± 0.118 | 3.48 ± 0.445 | 3.32 ± 0.041 | 19 ± 2.15 | 5.71 ± 0.578 | CC(Cn1ncc2c(Nc3cc(O)ccc3Cl)nc(NCCO)nc21)c1ccccc1 (stereo not drawn) [Cpd 6] | 4.0 | 97.9 | lower than 1 10^−6 cm/s | 
4 | almost doubled | significant reduction | nine-fold reduction | 0.224 ± 0.009 | 2.3 ± 0.279 | 10.2 ± 0.837 |  | 10.4 ± 0.363 | 97.3 ± 4.49 | CSc1nc(NCCc2ccccc2)c2cnn(CC(Cl)c3ccccc3)c2n1 (stereo not drawn) [Cpd 2] | 42.7 | 96.6 | 3.2 10^−6 cm/s | 
5 | slight increase | did not show relevant changes | reduced | 2.41 ± 0.12 | 31.1 ± 0.342 | 12.9 ± 0.786 | 2.02 ± 0.103 | 36.9 ± 2.95 | 18.2 ± 0.529 | Cc1nc(Nc2ncc(C(=O)Nc3c(C)cccc3Cl)s2)cc(N2CCN(CCO)CC2)n1 [Dasatinib, dasatinib, reference compound] |  |  |  | Cell viability (Caco-2 cells; 1 µM, vs untreated control): no significant signs of toxicity; viability at 10 µM ([5]; 10 µM): 90 to 100%; viability at 100 µM ([5]; 100 µM): 70 to 80%; Bioavailability [6]: 15.2%
6 | only a slight improvement | significant reduction | almost halved | 1.54 ± 0.095 | 5.99 ± 0.286 | 3.88 ± 0.054 | 1.25 ± 0.122 | 8.04 ± 0.183 | 6.46 ± 0.486 | CC(Cn1ncc2c(Nc3cc(O)ccc3Cl)nc(SCCN3CCOCC3)nc21)c1ccccc1 (stereo not drawn) [Cpd 5] | 6.6 | 97.9 | over 10 10^−6 cm/s | Caco-2 Papp A-B lower than PAMPA Papp (Caco-2 monolayer; Free): ~10 fold
7 | about three and four times | more interesting implementation | almost halved | 16.9 ± 0.743 | 53.3 ± 1.8 | 3.16 ± 0.245 | 5.11 ± 0.385 | 34.5 ± 0.817 | 6.77 ± 0.351 | CC(Cn1ncc2c(Nc3cccc(O)c3)nc(NCCO)nc21)c1ccccc1 (stereo not drawn) [Cpd 4] | 1 | 99.4 | lower than 1 10^−6 cm/s | 
8 | doubled | did not show relevant changes | almost halved | 93.1 ± 3.84 | 37.2 ± 4.73 | 0.399 ± 0.034 | 41.3 ± 4.28 | 33.6 ± 0.967 |  | CC(C)NCC(O)COc1cccc2ccccc12 (stereo not drawn) [Propranolol, propranolol, reference compound] |  |  |  | Cell viability (Caco-2 cells; 1 µM, vs untreated control): no significant signs of toxicity; Cell viability (Caco-2 cells; 100 µM): high percentages of viable cells; Papp [7]: higher than 10 × 10^−6 cm/s; Oral bioavailability / oral absorption (of an oral dose) [8]: around 90%

Row | Compound | Change of Papp A-B in presence of SCE vs Free (Caco-2 monolayer) | Change of Papp B-A in presence of SCE vs Free (Caco-2 monolayer) | Change of efflux ratio in presence of SCE vs Free (Caco-2 monolayer) | Papp A→B at 2 h, 10 µM ([2]; Caco-2, +SCE [1 mg/mL]) [×10⁻⁶ cm/s] | Papp B→A at 2 h, 10 µM ([2]; Caco-2, +SCE [1 mg/mL]) [×10⁻⁶ cm/s] | efflux ratio at 2 h, 10 µM ([2]; Caco-2, +SCE [1 mg/mL]) | Papp A→B at 2 h, 10 µM ([2]; Caco-2, Free) [×10⁻⁶ cm/s] | Papp B→A at 2 h, 10 µM ([2]; Caco-2, Free) [×10⁻⁶ cm/s] | efflux ratio at 2 h, 10 µM ([2]; Caco-2, Free) | PAMPA membrane retention (MR %) [1] [%] | Metabolic Stability [3] [%] | PAMPA Papp [1] | further results
9 | Oc1ccc(Cl)c(Nc2ncnc3c2cnn3CC(Cl)c2ccccc2)c1 (stereo not drawn) [Cpd 3] | ~10 fold | more interesting implementation | almost halved | 16.3 ± 0.537 | 32.5 ± 0.784 | 2 ± 0.114 | 1.68 ± 0.061 | 4.74 ± 0.097 | ~3 |  | 86.3 | 4.3 (-) 10^−6 cm/s | 
